According to patent US12473270B2, “CB1R receptor blockers with acyclic backbones” (YISSUM RESEARCH DEVELOPMENT COMPANY OF THE HEBREW …, priority 2019, dated 2025):
Like-named read-outs stand apart in the source and are kept apart here. One block for each compound: values may come before it.

Columns and labels:
mice [1] = experiment: Centrally-mediated hyperactivity / activity profile; format: in vivo, mouse; conditions: for activity profile / hyperactivity vs vehicle group: single dose IP: rimonabant 10, TMP 35, EST 40, IDB 20 mg/kg
Experimental: (§1) Locomotor activity. Locomotor activity was quantified by the number of disruptions of infrared XYZ beam arrays with a beam spacing of 0.25 cm in the Promethion High-Definition Behavioral Phenotyping System (Sable Instruments, Inc., Las Vegas, NV, USA).
as §1, with “Centrally-mediated hyperactivity profile. […] Mice were placed in metabolic cages and their activity profile was evaluated.” for “Locomotor activity.”

[2] = tested on: mice with diet-induced obesity (DIO); experiment: HFD-induced hepatic steatosis and liver injury; format: in vivo, mouse; conditions: for HFD-induced hepatic steatosis (fat vacuoles in the liver): DIO mice, 10 mg/kg/d ip
Experimental: (§2) Blood and urine biochemistry. Serum and urine levels of creatinine as well as serum levels of ALT, AST, ALP, HDL, LDL, TG and cholesterol were determined by using the Cobas C-111 chemistry analyzer (Roche, Switzerland). Creatinine clearance was calculated using urine and serum creatinine levels (CCr mL/h=Urine creatinine mg/dL×Urine volume/Serum creatinine mg/dL×24 hrs). Serum insulin levels were measured by an ELISA kit (Crystal Chem, Inc., Downers Grove, IL, USA). Fasting blood glucose was measured using the Elite glucometer (Bayer, Pittsburgh, PA).
Histopathological Analyses. 5 μm paraffin-embedded liver sections from 5 animals per group were stained with hematoxylin-eosin staining. Liver images were captured with a Zeiss AxioCam ICc5 color camera mounted on a Zeiss Axio Scope.A1 light microscope and taken from 10 random 40× fields of each animal.

[3] = tested on: mice with diet-induced obesity (DIO); experiment: Multi-parameter metabolic assessment (indirect calorimetry) in DIO mice; format: in vivo, mouse; conditions: for HFD-induced reduction in VO2 / HFD-induced reduction in fat oxidation / HFD-induced reduction in total energy expenditure: DIO mice, 10 mg/kg/d ip
Experimental: Multi-parameter metabolic assessment. Metabolic profile of the mice was assessed by using the Promethion High-Definition Behavioral Phenotyping System (Sable Instruments, Inc., Las Vegas, NV, USA). Data acquisition and instrument control were performed using MetaScreen software version 2.2.18.0, and the obtained raw data were processed using ExpeData version 1.8.4 using an analysis script detailing all aspects of data transformation. Mice with free access to food and water were subjected to a standard 12 h light/12 h dark cycle, which consisted of a 48 h acclimation period followed by 24 h of sampling. Respiratory gases were measured by using the GA-3 gas analyzer (Sable Systems, Inc., Las Vegas, NV, USA) using a pull-mode, negative-pressure system. Air flow was measured and controlled by FR-8 (Sable Systems, Inc., Las Vegas, NV, USA), with a set flow rate of 2000 mL/min. Water vapor was continuously measured and its dilution effect on O2 and CO2 was mathematically compensated. Effective mass was calculated by [body mass]^0.75. Fat oxidation (FO) and carbohydrate oxidation (CHO) were calculated as FO=1.69×VO2−1.69×VCO2 and CHO=4.57×VCO2−3.23×VO2 and expressed as g/d/kg^eff.Mass.

[4] = tested on: mice with diet-induced obesity (DIO); experiment: Body weight, adiposity and food intake in diet-induced obese mice; format: in vivo, mouse
Text: Mice. The experimental protocol used was approved by the Institutional Animal Care and Use Committee of the Hebrew University, which is an AAALAC International accredited institute. Male 6 week old C57Bl/6J mice were obtained from Harlan Laboratories. Mice were maintained under a 12-h light/dark cycle and fed ad libitum. To generate diet-induced obesity, C57Bl6/J mice were fed either a high-fat diet (HFD) (60% of calories from fat, 20% from protein, and 20% from carbohydrates; Research Diet, D12492) or a standard laboratory diet (STD, 14% fat, 24% protein, 62% carbohydrates; NIH-31 rodent diet) for 14 weeks.
Age-matched control mice on STD received vehicle daily. Body weight and food intake were monitored daily. Total body fat and lean masses were determined by EchoMRI-100H™ (Echo Medical Systems LLC, Houston, TX, USA). 24 h urine was collected one week before euthanasia using mouse metabolic cages (CCS2000 Chiller System, Hatteras Instruments, NC, USA). At weeks 20 mice were euthanized by a cervical dislocation under anesthesia, the kidneys, brain, liver, fat pads, and muscles were removed and weighed, and samples were either snap-frozen or fixed in buffered 4% formalin Trunk blood was collected for determining the biochemical parameters.

[5] = tested on: mice with diet-induced obesity (DIO); experiment: Glycemic control (ipGTT, ipIST, glucose, insulin) in DIO mice; format: in vivo, mouse; conditions: for HFD-induced glucose intolerance / HFD-induced hyperglycemia: DIO mice, 10 mg/kg/d ip
Experimental: Glucose tolerance (ipGTT) test and insulin sensitivity tests (ipIST). Mice that fasted overnight were injected with glucose (1.5 g/kg, ip), followed by a tail blood collection at 0, 15, 30, 45, 60, 90, and 120 minutes. Blood glucose levels were determined using the Elite glucometer (Bayer, Pittsburgh, PA). On the following day, mice were fasted for 6 h before receiving insulin (0.75 U/kg, i.p.; Eli Lilly, […], USA or Actrapid® vial, novo nordisk A/S, Denmark), and blood glucose levels were determined at the same intervals as above.
as §2

mice [6] = experiment: Antagonizing cannabinoid (HU-210)-induced hypomotility; format: in vivo, mouse; conditions: for increase in immobility induced by HU-210: HU-210 30 μg/kg ip, rimonabant 10 mg/kg ip, BNS-002 10, 20 and 50 mg/kg
Experimental: as §1
Antagonizing cannabinoid-induced hypomotility. The ability of the different compounds to inhibit the hypomotility induced by HU210 (cannabinoid agonist) was evaluated. […] A half an hour thereafter, mice received a single dose of HU210 (30 ug/kg, IP) and their locomotor activity was evaluated as described above.

CB1 receptor [7] = molecular target: T1, CB1 receptor (Mus musculus, UniProt P47746); experiment: [3H]CP-55,940 radioligand displacement assay; format: binding
T1 construct: crude membranes from mouse brain for CB1 receptor; from tissue; host or cells: mouse brain membranes (crude / P2)
Experimental: Radioligand binding assays. BNS-002 binding to CB1 receptor was assessed in competition displacement assays using [^3H]CP-55,940 as the radioligand and crude membranes from mouse brain for CB1 receptor. All data were in triplicates with Ki values determined from three independent experiments.
Radioligand binding assay. Binding of the tested compounds to CB1 receptor was assessed in competition displacement assays using [3H]CP-55,940 as the radioligand and crude membranes from mouse brain for CB1 receptor. Membranes were extracted according to an established protocol previously described by Catani V. M. and Gasperi V.. Compounds were tested at different concentrations (10-5M-10-11M) and their ability to displace [3H]CP-55,940 was evaluated. Membranes with bound [3H]CP-55,940 were separated and washed from free ligand by vacuum filtration and bound [3H]CP-55,940 radioactivity was measured using a […]. All data were in triplicates with Ki values extracted by nonlinear regression analysis using GraphPad Prism software.

[8] = Tissue levels of antagonists (brain penetrance); format: in vivo, mouse; conditions: mice, 3 and 10 mg/kg ip, 1 hour
Experimental: Tissue levels of antagonists. […] Blood was collected, and the mice were perfused with phosphate buffered saline for 1 min to remove drug from the intravascular space before removing the brain and liver. Drug levels in tissue homogenates and plasma were determined by using LC-MS/MS.

CB1 receptor [9] = molecular target: T1, CB1 receptor; experiment: [35S]GTPγS binding in mouse brain membranes; format: biochemical
Experimental: [^35S]GTPγS binding. Mouse brains were dissected and P2 membranes prepared and resuspended at ˜6 μg protein/μL in 1 ml assay buffer (50 mM Tris HCl, 9 mM MgCl2, 0.2 mM EGTA, 150 mM NaCl; pH 7.4). […] Briefly, membranes (10 μg protein) were incubated in assay buffer containing 100 μM GDP, 0.05 nM [^35S]GTPγS, test compounds at 1 nM-1 μM, and 1.4 mg/mL fatty acid-free BSA in siliconized glass tubes. Bound ligand was separated from free by vacuum filtration. Non-specific binding was determined using 10 μM GTPS. Basal binding was assayed in the absence of the ligand and in the presence of GDP.

[10] = tested on: mice with diet-induced obesity (DIO); experiment: HFD-induced kidney hyperfiltration; format: in vivo, mouse
Experimental: as §2

[11] = tested on: mice with diet-induced obesity (DIO); experiment: Serum lipids (dyslipidemia) in DIO mice; format: in vivo, mouse; conditions: 20 mg/kg/day for 20 days
Experimental: as §2

[12] = 7 days, rimonabant 10 mg/kg/d, BNS-002 30 mg/kg ip
[13] = [3H]CP-55,940, crude membranes from mouse brain, read-out: Ki for CB1 receptor
[14] = DIO mice, 20 mg/kg/day for 20 days
[15] = mice on high-fat diet, 20 mg/kg/day for 20 days

T1 sequence (P47746 whole entry): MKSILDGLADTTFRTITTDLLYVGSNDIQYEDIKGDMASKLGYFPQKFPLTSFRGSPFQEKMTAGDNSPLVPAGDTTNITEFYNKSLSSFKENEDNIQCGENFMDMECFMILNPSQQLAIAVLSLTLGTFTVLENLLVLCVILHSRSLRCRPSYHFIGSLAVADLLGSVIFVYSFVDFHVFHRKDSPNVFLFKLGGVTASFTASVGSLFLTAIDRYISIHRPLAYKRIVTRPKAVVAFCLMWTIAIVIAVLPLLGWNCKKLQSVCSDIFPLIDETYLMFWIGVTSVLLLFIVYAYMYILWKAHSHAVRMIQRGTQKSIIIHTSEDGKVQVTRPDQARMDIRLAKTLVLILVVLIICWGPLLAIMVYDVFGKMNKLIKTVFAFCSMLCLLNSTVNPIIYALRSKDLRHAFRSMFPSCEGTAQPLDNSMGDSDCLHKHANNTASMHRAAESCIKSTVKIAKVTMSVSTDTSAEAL

activity profile in mice (mice [1]; rimonabant 10 mg/kg ip, BNS-002 10, 20 and 50 mg/kg ip): marked increase
activity profile / hyperactivity vs vehicle group (mice [1]): marked increase
hypomotility induced by HU210 (mice [6]; HU210 30 ug/kg IP, rimonabant 10, TMP 35, EST 40, IDB 20 mg/kg IP): significantly blocked
increase in immobility induced by HU-210 (mice [6]): completely blocked
Structure (SMILES): Cc1c(C(=O)NN2CCCCC2)nn(-c2ccc(Cl)cc2Cl)c1-c1ccc(Cl)cc1 [rimonabant, reference compound]
HFD-induced hepatic steatosis (fat vacuoles in the liver) [2]: completely reversed
HFD-induced reduction in VO2 [3]: upregulate
HFD-induced reduction in fat oxidation [3]: upregulate
HFD-induced reduction in total energy expenditure [3]: upregulate
increased adiposity of mice on HFD ([4]; 10 mg/kg/d ip, 28 days): significantly reduced
overweight of mice on HFD ([4]; 10 mg/kg/d ip, 28 days): significantly reduced
overweight of mice on HFD [4, 12]: significantly reduced
total caloric intake ([4]; DIO mice, 10 mg/kg/d ip): ability to reduce
HFD-induced glucose intolerance [5]: completely reversed
HFD-induced hyperglycemia [5]: completely reversed

activity profile / hyperactivity vs vehicle group (mice [1]): no significant hyperactivity
Ki (CB1 receptor [7]; [3H]CP-55,940, crude membranes from mouse brain, range of Ki values (FIGS. 12-14), read-out: Ki values varying for each substance, ranging from): 1.9 to 135 nM
Ki (CB1 receptor [7]; [13]): 256 nM
functional profile by GTPγS binding (inverse agonism) (CB1 receptor [9]): inverse agonism profile
Structure (SMILES): COC1=C(OC)C(=O)C(CCCCCCCCCCOC(=O)c2nn(-c3ccc(Cl)cc3Cl)c(-c3ccc(Cl)cc3)c2C)=C(C)C1=O [IDB, 10-(4,5-dimethoxy-2-methyl-3,6-dioxocyclohexa-1,4-dien-1-yl)decyl 5-(4-chlorophenyl)-1-(2,4-dichlorophenyl)-4methyl-1H-pyrazole-3-carboxylate]
HFD-induced kidney hyperfiltration ([10]; IDB, compared to the control): no effect
dyslipidemia in DIO mice [11]: improve
HDL ([11]; DIO mice): reduce
HDL-to-LDL ratio ([11]; DIO mice): increase
LDL ([11]; DIO mice): reduce
total cholesterol ([11]; DIO mice): reduce
triglycerides ([11]; DIO mice): reduce
HFD-induced hepatic steatosis and liver injury ([2]; 20 mg/kg/day for 20 days): reduce
liver enzymes (AST, ALT, and ALP) ([2]; 20 mg/kg/day for 20 days): reduction
liver weight ([2]; 20 mg/kg/day for 20 days): decrease
metabolic parameters (respiratory quotient, VO2, VCO2, total energy expenditure, fat oxidation, carbohydrate oxidation) ([3]; 20 mg/kg/day for 20 days, over a 24 hr period): significant changes
body weight [4, 14]: reduced
daily and total food intake [4, 14]: reduced
fat mass [4, 14]: reduced
lean mass [4, 14]: increased
fasting glucose levels [5, 15]: reduced
fed glucose levels [5, 15]: reduced
glucose tolerance [5, 15]: reduced
glycosuria [5, 15]: increases
insulin sensitivity [5, 15]: improved

Continued, compound first:

Structure (SMILES): Cc1c(C(=O)OC2CC(C)(C)N([O])C(C)(C)C2)nn(-c2ccc(Cl)cc2Cl)c1-c1ccc(Cl)cc1 [EST, 2,2,6,6-tetramethyl-1-piperidin-4-yl 5-(4-chlorophenyl)-1-(2,4-dichlorophenyl)-4-methyl-1H-pyrazole-3-carboxylate]
activity profile / hyperactivity vs vehicle group (mice [1]): no significant hyperactivity
Ki (CB1 receptor [7]): 0.37 to 7.81 nM

Structure (SMILES): CCCCCCCCCCCCCCCCCCNC(=O)c1nn(-c2ccc(Cl)cc2Cl)c(-c2ccc(Cl)cc2)c1C [BNS-002, 5-(4-chlorophenyl)-1-(2,4-dichlorophenyl)-4-methyl-N-octadecyl-1H-pyrazole-3-carboxamide]
Ki (CB1 receptor [7]; [13]): 4.96 nM
affinity for CB1 receptor (in words) (CB1 receptor [7]; radioligand displacement): retains high affinity and selectivity
brain levels [8]: reduced
brain penetrance [8]: markedly reduced
serum levels [8]: increased
functional profile by GTPγS binding (inverse agonism) (CB1 receptor [9]): inverse agonist
GTPγS binding in mouse brain membranes (CB1 receptor [9]; compound alone): reduces GTPγS binding
action of the potent CB1 receptor agonist HU-210 on GTPγS binding (CB1 receptor [9]; with HU-210): able to ameliorate
HFD-induced kidney hyperfiltration ([10]; BNS-002): completely normalized
HFD-induced hepatic steatosis (fat vacuoles in the liver) [2]: partially
HFD-induced reduction in VO2 [3]: upregulate
HFD-induced reduction in fat oxidation [3]: upregulate
HFD-induced reduction in total energy expenditure [3]: upregulate
increased adiposity of mice on HFD ([4]; 10 mg/kg/d ip, 28 days): significantly reduced by rimonabant only
overweight of mice on HFD ([4]; 10 mg/kg/d ip, 28 days): significantly reduced by rimonabant only
body weight reduction ([4]; 7 days, BNS-002 15 mg/kg ip): no effect
overweight of mice on HFD [4, 12]: significantly reduced
HFD-induced glucose intolerance [5]: completely reversed
HFD-induced hyperglycemia [5]: completely reversed
increase in immobility induced by HU-210 (mice [6]): unaffected

Structure (SMILES): Cc1c(C(=O)NC2CC(C)(C)N([O])C(C)(C)C2)nn(-c2ccc(Cl)cc2Cl)c1-c1ccc(Cl)cc1 [TMP, 5-(4-chlorophenyl)-1-(2,4-dichlorophenyl)-4-methyl-N-(2,2,6,6-tetramethyl-1-oxo-1-piperidin-4-yl)-1H-pyrazole-3-carboxamide]
activity profile / hyperactivity vs vehicle group (mice [1]): no significant hyperactivity
Ki (CB1 receptor [7]): 1.69 to 446 nM
